According to patent US20090018106A1, “INTRAVENOUS FORMULATIONS OF PYRIDOXAL 5'- PHOSPHATE AND METHOD OF PREPARATION” (Medicure International Inc., priority 2005, published 2009):
Like-named read-outs stand apart in the source and are kept apart here.

Experiments:
[1] = Single intravenous dose escalation of P5P, plasma pharmacokinetics (Examples Two and Three); assay type: in vivo, human; details: for Cmax / MRT / Tmax / half-life / AUC(0-inf) / AUC(0-t): both sexes, human; for Cmax / MRT / Tmax / half-life: plasma, iv; for Significance of b1, lnAUCi / Significance of b1, lnCmax / Significance of b1, lnMRT / Significance of b1, lnThalf / Coef. for Dose (b1), lnAUCi / Coef. for Dose (b1), lnCmax / Coef. for Dose (b1), lnMRT / Coef. for Dose (b1), lnThalf / Intercept (b0), lnAUCi / Intercept (b0), lnCmax / Intercept (b0), lnMRT / Intercept (b0), lnThalf: ln(pK Parameter) = b0 + b1 * ln (Dose); for Coef. for Dose (b1), lnAUCi / Coef. for Dose (b1), lnCmax / Coef. for Dose (b1), lnMRT / Coef. for Dose (b1), lnThalf / Intercept (b0), lnAUCi / Intercept (b0), lnCmax / Intercept (b0), lnMRT / Intercept (b0), lnThalf: single iv 1-20 mg/kg; for dose relationship of plasma AUCinf and Cmax: single iv P5P 1-20 mg/kg
Method: A phase one clinical trial was conducted to compare the pharmacokinetics of intravenously administered P5P and orally administered P5P. The trial was a single dose escalation study.
For intravenous administration, P5P was administered by bolus injection under fasting conditions. The following doses of P5P were studied: 1, 5, 10, and 20 mg/kg. 6 subjects were assigned to each dosage group.
P5P, pyridoxal, and 4-pyridoxic acid were evaluated in both plasma and urine over a 24 hour interval following either intravenous or oral dosing. The results are set out below in Tables 2 and 3.
Methodology—This was a single-blind, single-dose escalation, non-randomized, 4-phase, non-crossover study designed to evaluate the safety and […] subjects under fasting conditions and to estimate pharmacokinetic parameters of P5P.
Subjects were assigned to one of the four groups (six subjects per group) under fasting conditions.
Concentrations of pyridoxal-5′-phosphate (P5P) were measured from the plasma samples collected over a 24-bour interval after dosing in each phase.
Pharmacokinetic parameters: AUCt, AUCinf, Cmax, Tmax, Kel, Thalf, Vd, CL, MRT and F were estimated based on pyridoxal-5′-phosphate (P5P) plasma levels for each subject that was in the final data set.
The test product used was a P5P Intravenous Injectable Solution, 50 mg/ml, which was prepared in accordance with the methods of Example 1 (CanAm BioResearch Inc. Canada); Lot No.: LP1459: Manufacturing Date: 12/03. A single 1, 5, 10 or 20 mg/kg dose was given by intravenous injection. The duration of treatment was a single dose.
Secondary Endpoint—Pharmacokinetic (PK) Parameters—Plasma concentrations of pyridoxal-5′-phosphate (P5P) were measured by a validated analytical method. Based on these concentration levels, AUCt, AUCinf, Cmax, Tmax, Kel, Thalf, Vd, CL, MRT and F were estimated.
Statistical Methods—Descriptive statistics were calculated by treatments for the estimated pharmacokinetic parameters.

[2] = Once daily intravenous 10 mg/kg P5P for four days, urinary excretion and renal clearance (Example Four); assay type: in vivo, human; details: P5P 10 mg/kg iv once daily, 4 days, mean; for CL renal: human, urine and plasma, iv, 10 mg/kg, read-out: CLR, renal clearance (converted)
Method: Data sets analyzed—Six (6) healthy, adult non-smokers were administered intravenously a single daily dose of 10 mg/kb of P5P for four consecutive days and completed the study. In accordance with the study protocol, data from all subjects who completed the study were used for pharmacokinetic and statistical analysis.
Analytical Methods—Plasma and urine samples were used for analysis. P5P, PAL, and PA levels were determined by HPLC/FLD. The quantitation level was 5 ng/mL for plasma and 100 ng/mL for urine. The sample analysis calibration curve range was 5 ng/mL to 5000 ng/mL for plasma and 100 ng/mL to 50,000 ng/mL for urine.
Total and Renal Clearance—Total body clearance was estimated for P5P and was calculated as Dose/AUC0-inf.

[3] = Group 1, P5P 1 mg/kg single iv, plasma PA, mean
[4] = Group 2, P5P 5 mg/kg single iv, plasma PA, mean
[5] = Group 3, P5P 10 mg/kg single iv, plasma PA, mean
[6] = Group 4, P5P 20 mg/kg single iv, plasma PA, mean
[7] = 1 mg/kg, Group 1, P5P 1 mg/kg single iv, plasma PA, mean
[8] = 5 mg/kg, Group 2, P5P 5 mg/kg single iv, plasma PA, mean
[9] = 10 mg/kg, Group 3, P5P 10 mg/kg single iv, plasma PA, mean
[10] = 20 mg/kg, Group 4, P5P 20 mg/kg single iv, plasma PA, mean
[11] = over all single iv doses of P5P (1-20 mg/kg), read-out: apparent elimination half-life (converted)
[12] = Group 1, P5P 1 mg/kg single iv, plasma PAL, mean
[13] = Group 2, P5P 5 mg/kg single iv, plasma PAL, mean
[14] = Group 3, P5P 10 mg/kg single iv, plasma PAL, mean
[15] = Group 4, P5P 20 mg/kg single iv, plasma PAL, mean
[16] = 1 mg/kg, Group 1, P5P 1 mg/kg single iv, plasma PAL, mean
[17] = 5 mg/kg, Group 2, P5P 5 mg/kg single iv, plasma PAL, mean
[18] = 10 mg/kg, Group 3, P5P 10 mg/kg single iv, plasma PAL, mean
[19] = 20 mg/kg, Group 4, P5P 20 mg/kg single iv, plasma PAL, mean

Compound `Cc1ncc(CO)c(C(=O)O)c1O` [PA, 4-pyridoxic acid] has a Kel [1, 3] of 0.311 h⁻¹, a Kel [1, 4] of 0.332 h⁻¹ and a Kel [1, 5] of 0.268 h⁻¹. For the same compound, the Kel [1, 6] was 0.216 h⁻¹, the Cmax [1, 7] was 419 ng/mL and the MRT [1, 7] was 4.5 h. For the same compound, the Tmax [1, 7] was 1.04 h, the half-life ([1]; 1 mg/kg, Group 1, P5P 1 mg/kg single iv, plasma PA, mean, read-out: T½ (converted)) was 2.82 h and the Cmax [1, 8] was 2450 ng/mL. For the same compound, the MRT [1, 8] was 3.48 h, the Tmax [1, 8] was 0.71 h and the half-life ([1]; 5 mg/kg, Group 2, P5P 5 mg/kg single iv, plasma PA, mean, read-out: T½ (converted)) was 2.12 h. It also gave a Cmax [1, 9] of 5360 ng/mL, an MRT [1, 9] of 3.85 h and a Tmax [1, 9] of 0.74 h. The half-life ([1]; 10 mg/kg, Group 3, P5P 10 mg/kg single iv, plasma PA, mean, read-out: T½ (converted)) was 2.73 h, the Cmax [1, 10] was 16100 ng/mL and the MRT [1, 10] was 4.13 h. It also gave a Tmax [1, 10] of 0.73 h, a half-life ([1]; 20 mg/kg, Group 4, P5P 20 mg/kg single iv, plasma PA, mean, read-out: T½ (converted)) of 3.48 h and a half-life [1, 11] of 2 to 3.5 h. For the same compound, the AUC(0-inf) [1, 3] was 1990 ng·h/mL, the AUC(0-t) ([1]; Group 1, P5P 1 mg/kg single iv, plasma PA, mean, read-out: AUC(0-t)) was 1500 ng·h/mL and the AUC(0-inf) [1, 4] was 10700 ng·h/mL. The AUC(0-t) ([1]; Group 2, P5P 5 mg/kg single iv, plasma PA, mean, read-out: AUC(0-t)) was 10500 ng·h/mL, the AUC(0-inf) [1, 5] was 23000 ng·h/mL and the AUC(0-t) ([1]; Group 3, P5P 10 mg/kg single iv, plasma PA, mean, read-out: AUC(0-t)) was 22700 ng·h/mL. For the same compound, the AUC(0-inf) [1, 6] was 53000 ng·h/mL, the AUC(0-t) ([1]; Group 4, P5P 20 mg/kg single iv, plasma PA, mean, read-out: AUC(0-t)) was 51900 ng·h/mL and the “Significance of b1, lnAUCi” value [1] was under 0.0001. The “Significance of b1, lnCmax” value [1] was under 0.0001, the “Significance of b1, lnMRT” value [1] was 0.7995 and the “Significance of b1, lnThalf” value [1] was 0.2604. The “Coef. for Dose (b1), lnAUCi” value [1] was 1.10, the “Coef. for Dose (b1), lnCmax” value [1] was 1.20 and the “Coef. for Dose (b1), lnMRT” value [1] was −0.01. For the same compound, the “Coef. for Dose (b1), lnThalf” value [1] was 0.08, the “Intercept (b0), lnAUCi” value [1] was 0.62 and the “Intercept (b0), lnCmax” value [1] was −0.98. The “Intercept (b0), lnMRT” value [1] was 1.37, the “Intercept (b0), lnThalf” value [1] was 0.82 and the “dose relationship of plasma AUCinf and Cmax” value [1] was “increase more than expected based on dose”. The “Ae0-t, total amount excreted in urine” value ([2]; Day 1, PA) was 172950596 ng, the “Ae0-t, total amount excreted in urine” value ([2]; Day 4, PA) was 225885311 ng and the CL renal ([2]; Day 1, PA) was 144 mL/min. The CL renal ([2]; Day 4, PA) was 179 mL/min.
`Cc1ncc(CO)c(C=O)c1O` [PAL, pyridoxal] showed a Kel [1, 12] of 0.198 h⁻¹, a Kel [1, 13] of 0.18 h⁻¹ and a Kel [1, 14] of 0.167 h⁻¹. It also gave a Kel [1, 15] of 0.177 h⁻¹, a Cmax [1, 16] of 591 ng/mL and an MRT [1, 16] of 3.7 h. The Tmax [1, 16] was 0.46 h, the half-life ([1]; 1 mg/kg, Group 1, P5P 1 mg/kg single iv, plasma PAL, mean, read-out: T½ (converted)) was 3.96 h and the Cmax [1, 17] was 2480 ng/mL. For the same compound, the MRT [1, 17] was 4.4 h, the Tmax [1, 17] was 0.71 h and the half-life ([1]; 5 mg/kg, Group 2, P5P 5 mg/kg single iv, plasma PAL, mean, read-out: T½ (converted)) was 4.25 h. For the same compound, the Cmax [1, 18] was 13300 ng/mL, the MRT [1, 18] was 3.68 h and the Tmax [1, 18] was 0.42 h. For the same compound, the half-life ([1]; 10 mg/kg, Group 3, P5P 10 mg/kg single iv, plasma PAL, mean, read-out: T½ (converted)) was 4.2 h, the Cmax [1, 19] was 25900 ng/mL and the MRT [1, 19] was 3.98 h. The Tmax [1, 19] was 0.32 h, the half-life ([1]; 20 mg/kg, Group 4, P5P 20 mg/kg single iv, plasma PAL, mean, read-out: T½ (converted)) was 4.01 h and the half-life [1, 11] was about 4 h. It also gave an AUC(0-inf) [1, 12] of 2070 ng·h/mL, an AUC(0-t) ([1]; Group 1, P5P 1 mg/kg single iv, plasma PAL, mean, read-out: AUC (0-t)) of 2020 ng·h/mL and an AUC(0-inf) [1, 13] of 10400 ng·h/mL. The AUC(0-t) ([1]; Group 2, P5P 5 mg/kg single iv, plasma PAL, mean, read-out: AUC (0-t)) was 10100 ng·h/mL, the AUC(0-inf) [1, 14] was 39500 ng·h/mL and the AUC(0-t) ([1]; Group 3, P5P 10 mg/kg single iv, plasma PAL, mean, read-out: AUC (0-t)) was 39100 ng·h/mL. The AUC(0-inf) [1, 15] was 95200 ng·h/mL, the AUC(0-t) ([1]; Group 4, P5P 20 mg/kg single iv, plasma PAL, mean, read-out: AUC (0-t)) was 94400 ng·h/mL and the “Significance of b1, lnAUCi” value [1] was under 0.0001. For the same compound, the “Significance of b1, lnCmax” value [1] was under 0.0001, the “Significance of b1, lnMRT” value [1] was 0.5671 and the “Significance of b1, lnThalf” value [1] was 0.5604. The “Coef. for Dose (b1), lnAUCi” value [1] was 1.30, the “Coef. for Dose (b1), lnCmax” value [1] was 1.30 and the “Coef. for Dose (b1), lnMRT” value [1] was 0.02. For the same compound, the “Coef. for Dose (b1), lnThalf” value [1] was 0.03, the “Intercept (b0), lnAUCi” value [1] was 0.56 and the “Intercept (b0), lnCmax” value [1] was −0.72. For the same compound, the “Intercept (b0), lnMRT” value [1] was 1.33, the “Intercept (b0), lnThalf” value [1] was 1.33 and the “dose relationship of plasma AUCinf and Cmax” value [1] was “increase more than expected based on dose”. For the same compound, the “Ae0-t, total amount excreted in urine” value ([2]; Day 1, PAL) was 18583712 ng, the “Ae0-t, total amount excreted in urine” value ([2]; Day 4, PAL) was 21011635 ng and the CL renal ([2]; Day 1, PAL) was 14.3 mL/min. The CL renal ([2]; Day 4, PAL) was 12.1 mL/min.
